From US20070191402A1, “Method of searching substrate having antidiabetic activity” (KYOWA HAKKO KOGYO CO., LTD., priority 2002, published 2007)

Key:
p31 protein = target: T1, p31 protein (Mus musculus, UniProt Q99LB2); test: Inhibition of binding of p31 protein from MIN6 solubilized membrane fraction to Compound 155-immobilized particle (SDS-PAGE); conditions: 500 μmol/l tested substance, band on SDS-PAGE
T1 construct: endogenous in cells; host or cells: MIN6 (murine pancreatic beta cell line), digitonin-solubilized membrane fraction
T1 sequence (Q99LB2 20-279 limits assumed): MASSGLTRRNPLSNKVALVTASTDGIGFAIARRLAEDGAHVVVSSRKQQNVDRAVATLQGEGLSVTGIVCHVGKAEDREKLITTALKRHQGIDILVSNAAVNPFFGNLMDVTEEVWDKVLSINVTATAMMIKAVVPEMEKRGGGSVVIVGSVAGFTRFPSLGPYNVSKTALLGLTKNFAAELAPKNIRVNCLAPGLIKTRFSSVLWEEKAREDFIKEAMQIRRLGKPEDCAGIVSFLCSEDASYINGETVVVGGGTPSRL
Experimental: The solubilized membrane fraction of MIN6 as prepared in Example 12 was 10-fold diluted with the buffer B. The compound represented by Compound No. 16 (hereinafter referred to as “Compound 16”) at 500 μmol/l was added to 1 ml of the resulting dilution and gently stirred at 4° C. for 2 hours. As a control, the solubilized membrane fraction of MIN6 without addition of the Compound 16 was 10-fold diluted with buffer C [20 mmol/l HEPES, pH 7.4, 2 mmol/l EDTA, 150 mmol/l NaCl, 1% digitonin, 1 mmol/l PMSF, 1 μg/ml aprotinin], and 1 ml of the resulting dilution was gently stirred at 4° C. for 2 hours. Then, a particle immobilizing a compound represented by Compound No. 155 (hereinafter referred to as “Compound 155-immobilized particle”) as prepared in Example 8 was added to the solubilized membrane fraction solution with addition of the Compound 16 and the solubilized membrane fraction solution without addition of any tested substance and gently stirred at 4° C. for 30 minutes. Subsequently, the resulting solutions were centrifuged (12,000 rpm, one minute, 4° C.) to precipitate the particle to thereby remove the supernatants. Then, 750 μl of the buffer C was added and stirred for 3 seconds, followed by centrifugation (12,000 rpm, one minute, 4° C.), to precipitate the particle to remove the supernatant. Then, 750 μl of buffer D [20 mmol/l HEPES, pH 7.4, 2 mmol/l EDTA] was added and stirred for 3 seconds, followed by centrifugation (12,000 rpm, one minute, 4° C.), to precipitate the particle to remove the supernatant. Subsequently, 30 μl of an SDS-polyacrylamide gel electrophoresis sample buffer containing β-mercaptoethanol was added to solubilize the protein binding to Compound 155-immobilized particle, followed by SDS-polyacrylamide gel electrophoresis. Through the purification from the cell extract solution by adding Compound 16 via Compound 155-immobilized particle, p31 protein in which its specific binding to Compound 155-immobilized particle was inhibited by the compound represented by Compound No. 16 was found. […]

[1] = tested on: pancreatic β cell (MIN6 cell); test: Inhibition of binding of [3H]-labeled Compound 16 to pancreatic β cell; design: species or system murine; conditions: test compound 1 μmol/l; 10 nmol/l [3H]-labeled Compound 16; MIN6 cell, 4° C.
Experimental: MIN6 cell cultured to almost confluence in a 24-well plate for cell culture (manufactured by Corning) was washed twice with KRH buffer (119 mmol/l NaCl, 4.74 mmol/KCl, 2.54 mmol/l calcium chloride (CaCl2), 1.19 mmol/l magnesium sulfate (MgSO4), 1.19 mmol/l potassium dihydrogen phosphate (KH2PO4), 10 mmol/l HEPES, 2 mmol/l glucose, 0.1 w/v % bovine serum albumin (BSA), pH 7.3). Subsequently, the KRH buffer was added at 1 ml per well, for preincubation at 37° C. for 45 minutes. After preincubation, the supernatant was discarded, and 0.15 ml of the KRH buffer, […] at 4° C. for one hour or longer until the reaction reached equilibrium. Subsequently, the cell was washed twice using the KRH buffer. The KRH buffer was added at 2 ml per well, which was then left to stand at room temperature for 20 minutes. The cell was again washed twice by using the KRH buffer. The radioactivity remaining in each well was counted with a liquid scintillation counter to determine the binding amount.
The difference between the binding amount of the [^3H]-labeled Compound 16 (total binding amount) under conditions with no addition of any test compound and the binding amount of the [^3H]-labeled Compound 16 (non-specific binding amount) under conditions in the presence of the Compound 16 at 10 μmol/l was defined as specific binding amount.
According to the method described in Example 5, a substance having anti-diabetic activity was screened for, using the inhibitory activity of the binding between pancreatic β cells and [^3H]-labeled Compound 16. A tested substance was dissolved in dimethylsulfoxide and then added to give a final concentration of 1 μmol/l. The radioactivity with addition of the unlabeled Compound 16 was defined as the non-specific binding amount and the radioactivity without addition of the unlabeled Compound 16 was defined as the total binding amount, and then the individual specific binding amounts were calculated by the method described in Example 6. Using the following formula, the binding inhibition ratio was determined. [formula]

MIN6 cell = test: Insulin secretion test using MIN6 cell; format: cell-based, murine; conditions: MIN6 cell; glucose 14.5 mmol/l or 8.4 mmol/l
Experimental: Culturing MIN6 cell and testing insulin secretion using MIN6 cell were carried out according to the method described in Diabetorogia, 36, 1139-1145 (1993).
In other words, the influence of a compound on the insulin secretion activity in the presence of 14.5 mmol/l glucose was assessed by assaying the amount of insulin in the cell culture supernatant collected as follows.
The MIN6 cell cultured in a 24-well plate was washed twice with 1 ml of buffer A [119 mmol/l NaCl, 4.74 mmol/l KCl, 2.54 mmol/l CaCl2, 1.19 mmol/l MgSO4, 1.19 mmol/l KH2PO4, 10 mmol/l 2-[4-(2-hydroxylethyl)-1-piperadinyl]ethanesulfonic acid, 0.1% BSA, pH 7.3] containing 2 mmol/l glucose. Subsequently, the resulting cell was incubated in 1 ml of the buffer A containing 2 mmol/l glucose at 37° C. for 45 minutes. The culture supernatant was exchanged with the buffer A (1 ml) containing test compounds of various concentrations and 8.4 mmol/l glucose and incubated at 37° C. for 45 minutes to collect the culture supernatant.
Antibody-reactive insulin secreted in the culture supernatant was assayed by radioimmunoassay [Methods in Investigative and Diagnostic Endocrinology, Vol. 2A, 2B, North-Holland Publishing Co., Amsterdam (1973)] after the culture supernatant was diluted with phosphate buffer containing 1% BSA, 0.1% Tween 20, 0.12% EDTA 2Na, and 0.1% sodium azide. A standard curve was prepared by using human insulin as the standard substance, and individual insulin values were calculated on the basis of the curve.

## CCCN1C(=O)N2CC(Cc3ccccc3)N=C2c2[nH]c(C3CCCC3)nc21 (single isomer, unassigned) [compound 17]
p31 protein
  inhibition of the binding of the p31 protein to the Compound 155-immobilized particle: cannot inhibit the binding of the p31 protein
[1]
  Binding inhibitory activity (%): 5.4%
MIN6 cell
  Insulin secretory activity (%): 15.8%
